PubChem BioAssay AID504844 (National Center for Advancing Translational Sciences (NCATS), 2011)

System: mouse plasma stability, LC-MS/MS, 48 h
Assay: Inhibitors of HPGD: Mouse Plasma Stability Profiling
Settings: at 2 µM; stronger effect = higher value
Description: Human 15-Hydroxyprostaglandin dehydrogenase (HPGD) catalyzes the inactivation of prostaglandin E2, and plays a major role in cancer biology by antagonizing the oncogenic potential of cyclooxygenase type 2 (COX2). Follow-up assays are available, based on absorbance/fluorescence increase of NADH with the substrate 15-OH prostaglandin E2. Please see summary AID for more information on this project. After qHTS, hits were confirmed in follow-up assays, and leads were optimized through SAR. The resulting lead compound was further characterized through a battery ADME-Tox experiments, and this assay describes its stability in mouse plasma. NIH Chemical Genomics Center [NCGC] NIH Molecular Libraries Probe Centers Network [MLPCN] MLPCN Grant: MH084681-02 Assay Submitter (PI): Udo Oppermann, Structural Genomics Consortium
2microM of compound is incubated in mouse plasma, the reference compound is procaine. Compounds are incubated at 37 deg C for the pre-determined time periods and the when aliquots are removed. Samples are analyzed with LC-MS/MS.

percent remaining | Structure (SMILES)
98% | Cc1cc(-c2nnc3n2CCCCC3)c(C)n1-c1ccccc1
98% | Cc1cccc(-n2cnc3cc(C(=O)N4CCCCC4)ccc32)c1
